Laboratory results as given in PubChem BioAssay (NCI).
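In this assay, cells in 96-well plates receive the compound at five concentrations for 48 hours. Endpoints are linearly interpolated between the surrounding concentrations. TGI: concentration producing complete growth inhibition.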

What was measured:
Experiment in all cases: NCI anticancer screen, dose series, 48 h
U251 CNS = system: U251 CNS
K-562 leukemia = system: K-562 leukemia
DMS 114 small cell lung = system: DMS 114 small cell lung
MOLT-4 leukemia = system: MOLT-4 leukemia
SK-MEL-28 melanoma = system: SK-MEL-28 melanoma
HOP-18 NSCLC = system: HOP-18 NSCLC
SF-539 CNS = system: SF-539 CNS
UO-31 renal = system: UO-31 renal
NCI-H23 lung = system: NCI-H23 lung
SW-620 colon = system: SW-620 colon
M19-MEL melanoma = system: M19-MEL melanoma
LXFL 529 NSCLC = system: LXFL 529 NSCLC
SK-MEL-5 melanoma = system: SK-MEL-5 melanoma
KM12 colon = system: KM12 colon
SK-OV-3 ovarian = system: SK-OV-3 ovarian
TK-10 renal = system: TK-10 renal
HCT-116 colon = system: HCT-116 colon
ACHN renal = system: ACHN renal
SF-268 CNS = system: SF-268 CNS
CCRF-CEM leukemia = system: CCRF-CEM leukemia
SR leukemia = system: SR leukemia
UACC-257 melanoma = system: UACC-257 melanoma
MALME-3M melanoma = system: MALME-3M melanoma
NCI-H522 lung = system: NCI-H522 lung
HOP-62 NSCLC = system: HOP-62 NSCLC
A549 NSCLC = system: A549 NSCLC
A498 renal = system: A498 renal
786-0 renal = system: 786-0 renal
OVCAR-4 ovarian = system: OVCAR-4 ovarian
RPMI-8226 leukemia = system: RPMI-8226 leukemia
HCT-15 colon = system: HCT-15 colon
SF-295 CNS = system: SF-295 CNS
NCI-H226 lung = system: NCI-H226 lung
COLO 205 colon = system: COLO 205 colon
HL-60(TB) leukemia = system: HL-60(TB) leukemia
HT29 colon = system: HT29 colon
DLD-1 colon = system: DLD-1 colon
SK-MEL-2 melanoma = system: SK-MEL-2 melanoma
RXF 393 renal = system: RXF 393 renal
UACC-62 melanoma = system: UACC-62 melanoma
SN12C renal = system: SN12C renal
OVCAR-5 ovarian = system: OVCAR-5 ovarian
HOP-92 NSCLC = system: HOP-92 NSCLC
M14 melanoma = system: M14 melanoma
SNB-75 CNS = system: SNB-75 CNS
IGROV1 ovarian = system: IGROV1 ovarian
OVCAR-8 ovarian = system: OVCAR-8 ovarian
DMS 273 small cell lung = system: DMS 273 small cell lung
LOX IMVI melanoma = system: LOX IMVI melanoma
CAKI-1 renal = system: CAKI-1 renal
NCI-H460 lung = system: NCI-H460 lung
KM20L2 colon = system: KM20L2 colon
MCF7 breast = system: MCF7 breast
BT-549 breast = system: BT-549 breast
DU-145 prostate = system: DU-145 prostate
T-47D breast = system: T-47D breast
HCC-2998 colon = system: HCC-2998 colon
MDA-MB-435 = system: MDA-MB-435
OVCAR-3 ovarian = system: OVCAR-3 ovarian
XF 498 CNS = system: XF 498 CNS
MDA-MB-231 breast = system: MDA-MB-231 breast
SNB-19 CNS = system: SNB-19 CNS
MDA-N = system: MDA-N
PC-3 prostate = system: PC-3 prostate
HS 578T breast = system: HS 578T breast
EKVX NSCLC = system: EKVX NSCLC

SMILES: COc1ccc(C2S/C(=C\c3cccc([N+](=O)[O-])c3)C(=O)N2NC(=O)Cc2ccccc2)cc1 (stereo unspecified)
- TGI (U251 CNS): > 100 µM
- TGI (K-562 leukemia): > 100 µM
- TGI (DMS 114 small cell lung): > 100 µM
- TGI (MOLT-4 leukemia): > 100 µM
- TGI (SK-MEL-28 melanoma): > 100 µM
- TGI (HOP-18 NSCLC): > 100 µM
- TGI (SF-539 CNS): > 100 µM
- TGI (UO-31 renal): > 100 µM
- TGI (NCI-H23 lung): > 100 µM
- TGI (SW-620 colon): > 100 µM
- TGI (M19-MEL melanoma): > 100 µM
- TGI (LXFL 529 NSCLC): > 100 µM
- TGI (SK-MEL-5 melanoma): > 100 µM
- TGI (KM12 colon): > 100 µM
- TGI (SK-OV-3 ovarian): > 100 µM
- TGI (TK-10 renal): > 100 µM
- TGI (HCT-116 colon): > 100 µM
- TGI (ACHN renal): > 100 µM
- TGI (SF-268 CNS): > 100 µM
- TGI (CCRF-CEM leukemia): > 100 µM
- TGI (SR leukemia): > 100 µM
- TGI (UACC-257 melanoma): > 100 µM
- TGI (MALME-3M melanoma): > 100 µM
- TGI (NCI-H522 lung): > 100 µM
- TGI (HOP-62 NSCLC): > 100 µM
- TGI (A549 NSCLC): > 100 µM
- TGI (A498 renal): > 100 µM
- TGI (786-0 renal): > 100 µM
- TGI (OVCAR-4 ovarian): > 100 µM
- TGI (RPMI-8226 leukemia): > 100 µM
- TGI (HCT-15 colon): > 100 µM
- TGI (SF-295 CNS): > 100 µM
- TGI (NCI-H226 lung): > 100 µM
- TGI (COLO 205 colon): > 100 µM
- TGI (HL-60(TB) leukemia): > 100 µM
- TGI (HT29 colon): > 100 µM
- TGI (DLD-1 colon): > 100 µM
- TGI (SK-MEL-2 melanoma): > 100 µM
- TGI (RXF 393 renal): > 100 µM
- TGI (UACC-62 melanoma): > 100 µM
- TGI (SN12C renal): > 100 µM
- TGI (OVCAR-5 ovarian): > 100 µM
- TGI (HOP-92 NSCLC): > 100 µM
- TGI (M14 melanoma): > 100 µM
- TGI (SNB-75 CNS): > 100 µM
- TGI (IGROV1 ovarian): > 100 µM
- TGI (OVCAR-8 ovarian): > 100 µM
- TGI (DMS 273 small cell lung): > 100 µM
- TGI (LOX IMVI melanoma): > 100 µM
- TGI (CAKI-1 renal): > 100 µM
- TGI (NCI-H460 lung): > 100 µM

SMILES: COC1(C)Cc2c(c(C)c(O)c3c2C(=O)C=C(Cl)C3=O)O1 (stereo unspecified)
- TGI (U251 CNS): > 100 µM
- TGI (KM20L2 colon): > 100 µM
- TGI (MCF7 breast): > 100 µM
- TGI (BT-549 breast): > 100 µM
- TGI (K-562 leukemia): 36.8 µM
- TGI (DMS 114 small cell lung): 76.6 µM
- TGI (MOLT-4 leukemia): 46.2 µM
- TGI (SK-MEL-28 melanoma): > 66.3 µM
- TGI (SF-539 CNS): > 100 µM
- TGI (UO-31 renal): > 100 µM
- TGI (DU-145 prostate): > 100 µM
- TGI (T-47D breast): 36.7 µM
- TGI (NCI-H23 lung): > 100 µM
- TGI (SW-620 colon): 47.1 µM
- TGI (HCC-2998 colon): > 100 µM
- TGI (M19-MEL melanoma): 38.9 µM
- TGI (MDA-MB-435): > 100 µM
- TGI (LXFL 529 NSCLC): 28.9 µM
- TGI (SK-MEL-5 melanoma): > 100 µM
- TGI (KM12 colon): > 100 µM
- TGI (SK-OV-3 ovarian): > 100 µM
- TGI (TK-10 renal): 45.6 µM
- TGI (HCT-116 colon): > 78 µM
- TGI (ACHN renal): 56.5 µM
- TGI (SF-268 CNS): > 100 µM
- TGI (CCRF-CEM leukemia): 26.3 µM
- TGI (SR leukemia): 23.5 µM
- TGI (OVCAR-3 ovarian): > 72.8 µM
- TGI (XF 498 CNS): > 56.4 µM
- TGI (UACC-257 melanoma): > 69.5 µM
- TGI (MALME-3M melanoma): 19.7 µM
- TGI (NCI-H522 lung): 33 µM
- TGI (HOP-62 NSCLC): > 100 µM
- TGI (A549 NSCLC): > 100 µM
- TGI (MDA-MB-231 breast): 39.9 µM
- TGI (A498 renal): > 100 µM
- TGI (SNB-19 CNS): > 100 µM
- TGI (786-0 renal): > 100 µM
- TGI (OVCAR-4 ovarian): > 86.8 µM
- TGI (RPMI-8226 leukemia): 52.1 µM
- TGI (HCT-15 colon): > 71.9 µM
- TGI (SF-295 CNS): > 100 µM
- TGI (NCI-H226 lung): > 100 µM
- TGI (COLO 205 colon): 38.1 µM
- TGI (HL-60(TB) leukemia): 14.8 µM
- TGI (HT29 colon): 67 µM
- TGI (DLD-1 colon): 37.1 µM
- TGI (MDA-N): > 100 µM
- TGI (SK-MEL-2 melanoma): > 100 µM
- TGI (RXF 393 renal): 31.8 µM
- TGI (UACC-62 melanoma): > 87.5 µM
- TGI (SN12C renal): > 96.7 µM
- TGI (OVCAR-5 ovarian): > 100 µM
- TGI (PC-3 prostate): > 100 µM
- TGI (HOP-92 NSCLC): 36.4 µM
- TGI (M14 melanoma): 56.5 µM
- TGI (SNB-75 CNS): > 100 µM
- TGI (IGROV1 ovarian): > 100 µM
- TGI (OVCAR-8 ovarian): > 73.6 µM
- TGI (DMS 273 small cell lung): > 100 µM
- TGI (LOX IMVI melanoma): > 100 µM
- TGI (HS 578T breast): > 100 µM
- TGI (CAKI-1 renal): 42 µM
- TGI (EKVX NSCLC): > 100 µM
- TGI (NCI-H460 lung): > 100 µM
